{"source": "patent US20110086850A1", "about": "“RADIOSENSITIZATION OF TUMORS WITH INDAZOLPYRROLOTRIAZINES FOR RADIOTHERAPY” (Board of Regents, The University of Texas System, priority 2008, published 2011)", "key": {"UMSCC-10 cells [1]": {"test_system": "UMSCC-10 cells", "assay": "Cell proliferation assay (MTT assay)", "assay_type": "cell-based", "settings": "AC480 50 nM—1 μM, 72 hrs", "procedure": "(§1) The radiosensitization effect of AC480 was evaluated in vitro using head neck squamous cell carcinoma cells, HNSCC-10, which express HER2 only and have no detectable amount of HER1 protein, and HN-5 cells, which express high levels of HER1 and HER2 proteins. […] AC480 was added to cell cultures that contained either HN-5 or HNSCC-10 cells 6 hrs before and kept in the medium for additional 66 hrs after irradiation. The cancerous cells were then irradiated with graded single doses of γ-radiation. At various predetermined time points after irradiation, the cells were assessed: (a) for clonogenic survival using clonogenic survival assays; (b) for apoptosis using aTUNEL assay; (c) for cell cycle distribution with FACS; and (d) for protein expression related to the cell cycle, apoptosis, and DNA repair, using Western blotting and immunoprecipitation methods.\n(§2) The effect of AC480 on cell proliferation of HN-5 and UMSCC-10 cells was determined using 3-[4,5-dimethylthiozol-2-yl]-2,5-diphenyltetrazolium bromide (MTT) assay. HN-5 and UMSCC-10 cells are plated in 96-well plates and treated with a series of concentrations of AC480. […] The cells are then lysed in 150 μL of ethanol/DMSO mixture (1:1), and the absorbance read at 540 nm using a 96-well plate reader."}, "HN-5 cells [2]": {"test_system": "HN-5 cells", "assay": "Cell proliferation assay (MTT assay)", "assay_type": "cell-based", "settings": "AC480 50 nM—1 μM, 72 hrs", "procedure": "as §1, §2"}, "UMSCC-10 cells [3]": {"test_system": "UMSCC-10 cells", "assay": "Cell-cycle analysis (FACS) after radiation", "assay_type": "cell-based", "procedure": "as §1\n(§3) Cell cycle distribution is measured by determining the ploidy of cells by staining the cells with fluorescent dye and sorting by FACS using a commercially available kit. AC480 increased radiation-induced accumulation of HN-5 but not in UMSCC-10 cells in the G1 cell cycle phase (FIG. 6)."}, "HN-5 cells [4]": {"test_system": "HN-5 cells", "assay": "Cell-cycle analysis (FACS) after radiation", "assay_type": "cell-based", "procedure": "as §1, §3"}, "UMSCC-10 cells [5]": {"test_system": "UMSCC-10 cells", "assay": "Clonogenic survival assay with γ-irradiation", "assay_type": "cell-based", "settings": "AC480 300 or 600 nM from 6 hrs before to 66 hrs after 2, 4 or 6 Gy γ-rays", "procedure": "as §1\n(§4) HN-5 or UMSCC-10 cells were counted and plated. Twenty-four hours later, the cells in culture were then exposed to AC480 at 300 or 600 nM for 6 hrs. The cells were then irradiated with graded doses at 2, 4, or 6 Gy of γ-rays using a ^137Cs source (3.7 Gy/min). Sixty-six hours later, culture media with AC480 were removed and fresh media were added. Media change was also done for untreated control cells at the same time. After 11 to 14 days of incubation, colonies were counted. […] The dose enhancement ratio at survival fraction of 0.5 was 1.30 for 300 nM and 1.43 for 600 nM of AC480. Dose enhancement ratio was calculated by dividing the radiation dose required to achieve a surviving fraction of 0.5 in the absence of AC480 with the radiation dose required to achieve the same surviving fraction in the presence of AC480 at a specified concentration."}, "HN-5 cells [6]": {"test_system": "HN-5 cells", "assay": "Clonogenic survival assay with γ-irradiation", "assay_type": "cell-based", "settings": "for dose enhancement ratio at survival fraction of 0.5: cell line not named in the sentence (HN-5 by context)", "procedure": "as §1, §4"}, "[7]": {"test_system": "adenocarcinomas expressing HER1 and/or HER2 in salivary gland, breast, non-small cell lung, and gastric cancer cell lines", "settings": "Wong et al., Clin. Cancer Res. 2006; cited from earlier work"}, "γ-H2AX foci": {"test_system": "γ-H2AX foci", "assay": "γ-H2AX foci immunocytochemistry (DNA repair)", "assay_type": "cell-based", "settings": "24 hrs after radiation; AC480 600 nM (FIG. 7)", "procedure": "The control is shown as open circle and solid line.\nas §1\nThe extent of DNA repair is quantified by measuring the generation of nuclear foci at the site of DNA damage by phosphorylated H2AX (γ-H2AX), which is involved in the retention of repair and signaling factor complexes at sites of DNA double strand breaks. γ-H2AX is detected with antibodies to phosphorylated H2AX using traditional immunohistochemistry (See, e.g., Friesner et al., Mol. Biol. Cell. 2005, ^-16, 2566-2576; and Dote et al., Clin. Cancer Res. 2005, 11, 4571-4579). […]"}, "HN-5 tumor xenografts": {"test_system": "HN-5 tumor xenografts", "assay": "Tumor growth delay assay, HN-5 tumor xenografts", "assay_type": "in vivo, nude male mice", "settings": "AC480 120 mg/kg gavage once daily for 14 days", "procedure": "The terms “dose enhancement ratio” and “dose enhancement factor” are used interchangeably herein and are used herein to measure the fold increase in cytotoxic efficacy of radiation when delivered in the presence of a radiosensitizer. In certain embodiments, dose enhancement ratio is calculated by dividing the radiation dose required to achieve a surviving fraction in the absence of the radiosensitizer with the radiation dose required to achieve the same surviving fraction in the presence of the radiosensitizer at a specified concentration. This calculation method can be used to assess the radiosensitizing effect of an radiosensitizer in an in vitro system, such as cells in culture. […]\nThe effect of AC480 on radioresponse was assessed by tumor growth delay assay using HN-5 tumor xenografts generated in nude male mice.\nSpecifically, HN-5 cells (1×10^6) were injected into the right leg of 3-4 month old nude male mice (nu-nu/Ncr) (SPF mice). […] Tumors were measured with calipers 3 times/week to determine tumor growth delay. […]"}, "UMSCC-10 cells [8]": {"test_system": "UMSCC-10 cells", "assay": "TUNEL assay, radiation-induced apoptosis", "assay_type": "cell-based", "procedure": "as §1\n(§5) Apoptotic cells are detected by in-situ labeling of fragmented DNA with enzymatically labeled nucleotides using the TUNEL method as described in commercial protocols or by following the procedure described in Sgonc et al., Trends in Genetic 1994, 10, 41-42. AC480 increased radiation-induced apoptosis in HN-5 but not in UMSCC-10 cells (FIG. 5)."}, "HN-5 cells [9]": {"test_system": "HN-5 cells", "assay": "TUNEL assay, radiation-induced apoptosis", "assay_type": "cell-based", "procedure": "as §1, §5"}}}
{"smiles": "Cc1c(NC(=O)OC[C@@H]2COCCN2)cn2ncnc(Nc3ccc4c(cnn4Cc4cccc(F)c4)c3)c12", "note": "[AC480]", "values": [{"measurement": "effect on cell growth (MTT)", "setting": "UMSCC-10 cells [1]", "value": "not"}, {"measurement": "effect on cell growth (MTT)", "setting": "HN-5 cells [2]", "value": "inhibits the growth"}, {"measurement": "effect on radiation-induced accumulation of cells in the G1 cell cycle phase", "setting": "UMSCC-10 cells [3]", "value": "not"}, {"measurement": "effect on radiation-induced accumulation of cells in the G1 cell cycle phase", "setting": "HN-5 cells [4]", "value": "increased"}, {"measurement": "effect on radiosensitivity (clonogenic survival)", "setting": "UMSCC-10 cells [5]", "value": "not"}, {"measurement": "dose enhancement ratio at survival fraction of 0.5", "setting": "HN-5 cells [6]; 300 nM AC480", "value": 1.30}, {"measurement": "dose enhancement ratio at survival fraction of 0.5", "setting": "HN-5 cells [6]; 600 nM AC480", "value": 1.43}, {"measurement": "effect on radiosensitivity (clonogenic survival)", "setting": "HN-5 cells [6]; HN-5 cells, AC480 300 or 600 nM from 6 hrs before to 66 hrs after 2, 4 or 6 Gy γ-rays", "value": "significantly enhanced"}, {"measurement": "cytotoxicity", "setting": "[7]", "value": "cytotoxic"}, {"measurement": "presence of γ-H2AX foci after radiation", "setting": "γ-H2AX foci", "value": "prolonged"}, {"measurement": "effect on radioresponse of HN-5 tumors in vivo", "setting": "HN-5 tumor xenografts; before and during radiation (5 Gy×5 days)", "value": "improve the radioresponse"}, {"measurement": "enhancement factor (tumor growth delay)", "setting": "HN-5 tumor xenografts; with XRT 5 Gy×5 consecutive days, HN-5 xenografts in nude mice", "value": 1.9}, {"measurement": "effect on radiation-induced apoptosis (TUNEL)", "setting": "UMSCC-10 cells [8]", "value": "not"}, {"measurement": "effect on radiation-induced apoptosis (TUNEL)", "setting": "HN-5 cells [9]", "value": "increased"}]}
